Reference: patent US8563500B2, “Methods and compounds for treating diseases caused by reactive oxygen species” (Deutsches Krebsforschungszentrum Stiftung des Offentlichen …, priority 2007, dated 2013)
Where two headings read alike, the source gives them in different places.

Assays:
CD95L [1] = assay: Activation-induced CD95L expression, semi-quantitative RT-PCR and quantitative PCR, Jurkat cells; assay type: cell-based, human; settings: for reduction of CD95L induction, quantitative PCR: plate-bound anti-CD3 (TCR triggering)
Jurkat J16-145 cells [2] = assay: Activation-induced (PMA or anti-CD3) ROS generation, DCFDA oxidation by FACS; assay type: cell-based, human
Jurkat J16-145 cells [3] = assay: Activation-induced T cell death (AICD), specific cell death by FSC/SSC, Jurkat cells; assay type: cell-based, human; settings: PMA/ionomycin or plate-bound anti-CD3, 24 h
Description: (§1) Assessment of cell death. […] Cell death was assessed by a drop in the forward-to-side-scatter (FSC/SSC) profile in comparison to living cells and recalculated to “specific cell death” as described (25).

[4] = system: primary human T cells (day 6 T cells); assay: Anti-CD3 induced ROS generation (DCFDA) in primary human T cells; assay type: cell-based; settings: preactivated primary human T cells (day 6); anti-CD3 30 min
CD95L [5] = assay: Anti-CD3 induced CD95L expression in primary human T cells (PCR); assay type: cell-based; settings: day 6 T cells
[6] = system: primary human T cells (day 6 T cells); assay: AICD in primary human T cells, specific cell death; assay type: cell-based; settings: plate-bound anti-CD3 24 h
Description: FIG. 9. Primary human T cells depend on complex I-originated activation-induced ROS for CD95L expression and AICD. […] Cells were stained with DCFDA and MFI was measured by FACS. […] Next, RNA was isolated, reverse-transcribed, and amplified using CD95L- and actin-specific primers. C, T cells were transfected with 900 nM of scrambled- (ctr) or two different NDUFAF1-siRNA oligonucleotides (#1, #2). After 48 h, RNA was isolated, reverse-transcribed, and amplified using NDUFAF1- and actin-specific primers. D, 72 h after transfection with 900 nM of scrambled- (ctr) or NDUFAF1-siRNA oligonucleotides (#1, #2) primary human T were stimulated by plate-bound anti-CD3 antibodies for 30 min and oxidative signal was determined as in (A). […] (ii) For 1 h (F), to detect changes in CD95L expression (left panel semi quantitative PCR; right panel quantitative PCR). (iii) For 24 h (G) to assessed AICD by a drop in FCS/SSC index. Insert show T cells cotreated with or without CD95L neutralizing antibody (results were recalculated to “specific cell death”). H, Schematic diagram of TCR induced oxidative signalling.
Isolation of human peripheral T cells. […]
as §1

CD95 receptor [7] = assay: Apoptosis induced via direct stimulation of the CD95 receptor, Jurkat cells; assay type: cell-based, human; settings: data not shown
CD95 receptor [8] = assay: Apoptosis induced by direct stimulation of the CD95 receptor, primary T cells; assay type: cell-based, human; settings: data not shown
IL-2, IL-4, or TNF-alpha = assay: Cytokine expression in activated T cells (RT-PCR); assay type: cell-based, human
complex I [9] = settings: references 6, 18; cited from earlier work
complex I [10] = settings: isolated mitochondria; reference 6; cited from earlier work
Jurkat J16-145 cells [11] = assay: Cellular ATP determination; assay type: cell-based, human; settings: high concentrations of inhibitors, 2 h
[12] = Jurkat J16-145, anti-CD3 or PMA/ionomycin, 1 h

## CN(C)CCCn1cc(C2=C(c3c[nH]c4ccccc34)C(=O)NC2=O)c2ccccc21 [BIM, bisindolylmaleimide I]
CD95L [1]
  effect on activation-induced CD95L expression (RT-PCR), in words: dose dependent inhibition of CD95L expression

## c1ccc2c(c1)[I+]c1ccccc1-2 [DPI]
Jurkat J16-145 cells [2]; Jurkat J16-145, PMA 30 min
  effect on PMA-induced ROS generation / oxidative signal, in words: only a moderate effect

## O=C(CC(=O)C(F)(F)F)c1cccs1 [TTFA, 1,1,1-thenoyl trifluoroacetone]
Jurkat J16-145 cells [2]
  effect on activation-induced (TCR- and PMA-induced) ROS generation, in words: no effect or increased the oxidative signal

## COc1cc(C(C)=O)ccc1O [apocynin]
Jurkat J16-145 cells [2]; Jurkat J16-145, PMA 30 min
  effect on PMA-induced ROS generation / oxidative signal, in words: only a moderate effect

## CN(C)C(=N)N=C(N)N [metformin]
Jurkat J16-145 cells [2]
  effect on PMA-induced ROS generation / oxidative signal, in words: diminished oxidative signal
CD95L [1]; Jurkat J16-145, PMA/ionomycin, 1 h
  reduction of CD95L expression, quantitative PCR: 50%
CD95L [1]; [12]
  effect on activation-induced CD95L expression (RT-PCR), in words: inhibition of CD95L expression
CD95L [1]; Jurkat J16-145, 1 h
  reduction of CD95L induction, quantitative PCR: up to 80%
Jurkat J16-145 cells [3]
  effect on AICD, in words: drastically reduced AICD
[4]
  effect on activation-induced (anti-CD3) oxidative signal, in words: inhibits the anti-CD3 induced oxidative signal
CD95L [5]; plate-bound anti-CD3 1 h
  inhibition of induction of CD95L expression: up to 70%
[6]
  effect on AICD (cell death), in words: nearly completely inhibited
CD95 receptor [7]
  apoptosis induced via direct stimulation of the CD95 receptor: not affected
CD95 receptor [8]
  apoptosis induced by direct stimulation of the CD95 receptor: not affected
IL-2, IL-4, or TNF-alpha
  expression of cytokines such as IL-2, IL-4, or TNF-alpha: can be reduced
Complex I [9]
  inhibition of complex I: mildly inhibits
Complex I [10]
  inhibition of complex I-induced ROS production: efficiently inhibit

## CC[C@H]1/C=C/C=C/C[C@@H](C)[C@H](O)[C@@](C)(O)C(=O)[C@@H](C)[C@H](O)[C@@H](C)C(=O)[C@@H](C)[C@H](O)[C@@H](C)/C=C/C(=O)O[C@@H]2[C@H](C)[C@H](CC1)O[C@]1(CC[C@H](C)[C@H](C[C@@H](C)O)O1)[C@H]2C [oligomycin]
Jurkat J16-145 cells [2]; Jurkat J16-145, anti-CD3 or PMA, 30 min
  effect on activation-induced (TCR- and PMA-induced) ROS generation, in words: no effect or increased the oxidative signal
CD95L [1]; Jurkat J16-145, 1 h
  reduction of CD95L induction, quantitative PCR: no effect
Jurkat J16-145 cells [11]
  ATP depletion compared to rotenone and piericidin A: more efficient ATP depletion

## C/C=C(\C)[C@H](O)[C@H](C)/C=C(C)/C=C/C/C(C)=C/Cc1nc(OC)c(OC)c(O)c1C [piericidin A]
Jurkat J16-145 cells [2]
  effect on activation-induced (TCR- and PMA-induced) ROS generation, in words: able to inhibit
CD95L [1]; [12]
  effect on activation-induced CD95L expression (RT-PCR), in words: abolished CD95L transcription almost completely

## C=C(C)[C@H]1Cc2c(ccc3c2O[C@@H]2COc4cc(OC)c(OC)cc4[C@@H]2C3=O)O1 [rotenone]
Jurkat J16-145 cells [2]
  effect on activation-induced (TCR- and PMA-induced) ROS generation, in words: able to inhibit
CD95L [1]; [12]
  effect on activation-induced CD95L expression (RT-PCR), in words: abolished CD95L transcription almost completely
CD95L [1]; Jurkat J16-145, 1 h
  reduction of CD95L induction, quantitative PCR: more than 80%
[4]
  effect on activation-induced (anti-CD3) oxidative signal, in words: exclusively inhibited
CD95L [5]; anti-CD3 1 h
  effect on CD95L expression, in words: exclusively inhibited
